The test system of one test is HBV. Briefly: HBV-DNA antiviral assay using HepG2.117 cells (intracellular HBV DNA by qPCR). Type of test: cell-based, genotype D HBV. Conditions: HBV DNA inhibition, 3 days incubation, 2% DMSO. The method, then: The following assay procedure describes the HBV antiviral assay, using HepG2.117 cells, which carry a stably integrated genotype D HBV genome under the control of a Tet-off promoter, and intracellular HBV DNA quantification as endpoint. Cell viability is assessed in parallel by measuring the intracellular ATP content using CellTiter-Glo 2.0 (Promega).
On day 0, HepG2.117 cells (which are maintained in routine cell culture with doxycycline present in the medium at a final concentration of 1 μg/mL) were seeded in 96-well plates (white with clear bottom) at a density of 2.0×10^4 cells/well (0.1 mL/well) in medium without doxycycline to induce pgRNA transcription and subsequent formation of HBV particles. The cells were incubated at 37° C. and 5% CO2.
On day 1, medium was removed from each well, the test articles were diluted in culture medium without doxcycyline and 100 μL was added to cell culture wells (9 concentrations, 4-fold dilution). For each plate, 6 untreated (merely DMSO) wells were included. The final concentration of DMSO in the culture medium was 2%. Each plate was prepared in duplicate (one for HBV DNA extraction, one for CellTiter-Glo 2.0 measurement). The cells were incubated at 37° C. and 5% CO2 for 3 days.
On day 4, cell viability was assessed using CellTiter-Glo 2.0 and cell lysates were prepared for HBV DNA extraction and subsequent quantification by qPCR.
HBV DNA Quantification by qPCR
Medium was removed from each well and 100 μL of 0.33% NP-40 in H2O was added to each well. Plates were sealed, incubated at 4° C. for 5 mins, vortexed extensively and centrifuged briefly. Next, 35 μL of lysate was added to 65 μL QuickExtract DNA Extraction Solution (Epicentre) in a PCR plate for each well. PCR plate was incubated at 65° C. for 6 mins, 98° C. for 2 mins and finally cooled to 4° C. HBV DNA was then quantified by qPCR with HBV-specific primers and probes as specified in Table 1 using the Bio-Rad SSOAdvanced Universal Probes Supermix on a CFX96 machine (Bio-Rad). The PCR cycle program consisted of 95° C. for 3 mins, followed by 40 cycles at 95° C. for 10 sec and 60° C. for 30 sec.
A DNA standard was prepared by dilution of an IDT gBlock corresponding to the amplicon with concentrations ranging from 10^2 to 10^8 copies/input (i.e. per 4 μL) and used to generate a standard curve by plotting Cq values vs. HBV DNA standard concentration. The quantity of HBV DNA in each sample was determined by interpolating from the standard curve.
Cell viability was calculated as follows: % Cell viability=(luminescence value of test sample)/(average luminescence value of 2% DMSO control)×100%. HBV DNA inhibition was calculated as follows: 100−(HBV DNA copy number of test sample)/(average HBV DNA copy number of 2% DMSO control)×100%. No normalization to entecavir was required due to the excellent dynamic window of this assay. The CC50, EC50 and EC90 values were determined by dose-response curves fitted by GraphPad Prism using “log (agonist) vs. response—Variable slope”.
In turn, `CNc1onc2cc(-n3c(=O)c4c(n5ncc(Cc6ccccc6)c35)CN(C(=O)c3ccc(Br)c(Cl)c3)CC4)ccc12` [Compound 6, 5-benzyl-12-(4-bromo-3-chloro-benzoyl)-7-[3-(methylamino)-2,1-benzoxazol-6-yl]-2,3,7,12-tetrazatricyclo[7.4.0.0^2,6]trideca-1(9),3,5-trien-8-one] displayed an EC50 of less than 50 nM.

Staying with this test, now noted: Hepatitis B virus, 72 h, HBV DNA inhibition, 3 days incubation, 2% DMSO.
In turn, `CNC(=O)c1ccc(-n2c(=O)c3c(n4ncc(Cc5ccccc5)c24)CN(C(=O)c2ccc(Br)c(C(F)(F)F)c2)[C@@H](C2CC2)C3)cc1` (stereo in doubt) [Compound 104a, N-methyl-4-[rac-(11R)-5-benzyl-12-[4-bromo-3-(trifluoromethyl)benzoyl]-11-cyclopropyl-8-oxo-2,3,7,12-tetrazatricyclo[7.4.0.0^2,6]trideca-1(9),3,5-trien-7-yl]benzamide] registered an EC50 of less than 50 nM. As to `CNC(=O)c1ccc(-n2c(=O)c3c(n4ncc(CC(C)C)c24)CN(C(=O)c2ccc(Cl)c(C(F)(F)F)c2)[C@@H](C)C3)cc1` (stereo in doubt) [Compound 54b, N-methyl-4-[rac-(11S)-12-[4-chloro-3-(trifluoromethyl)benzoyl]-5-isobutyl-11-methyl-8-oxo-2,3,7,12-tetrazatricyclo[7.4.0.0^2,6]trideca-1(9),3,5-trien-7-yl]benzamide], the EC50 was in the range of 50 to 500 nM. `C[C@@H]1Cc2c(n3ncc(CC4CCC4)c3n(-c3ccc(-c4nncn4C)cc3)c2=O)CN1C(=O)c1ccc(Cl)c(C(F)(F)F)c1` (stereo in doubt) [Compound 51a, rac-(11R)-12-[4-chloro-3-(trifluoromethyl)benzoyl]-5-(cyclobutylmethyl)-11-methyl-7-[4-(4-methyl-1,2,4-triazol-3-yl)phenyl]-2,3,7,12-tetrazatricyclo[7.4.0.0^2,6]trideca-1(9),3,5-trien-8-one] yielded an EC50 of less than 50 nM. As for `CNC(=O)c1ccc(-n2c(=O)c3c(n4ncc(CC(C)C)c24)CN(C(=O)c2ccc(Br)c(C(F)(F)F)c2)[C@@H](C)C3)cc1` (stereo in doubt) [Compound 50b, N-methyl-4-[rac-(11S)-12-[4-bromo-3-(trifluoromethyl)benzoyl]-5-isobutyl-11-methyl-8-oxo-2,3,7,12-tetrazatricyclo[7.4.0.0^2,6]trideca-1(9),3,5-trien-7-yl]benzamide], the EC50 lay in the range of 50 to 500 nM. In turn, `Cc1nn[nH]c1-c1ccc(-n2c(=O)c3c(n4ncc(CC(C)C)c24)CN(C(=O)c2ccc(Cl)c(C(F)(F)F)c2)[C@@H](C)C3)cc1` (stereo in doubt) [Compound 63b, rac-(11S)-12-[4-chloro-3-(trifluoromethyl)benzoyl]-5-isobutyl-11-methyl-7-[4-(4-methyl-1H-triazol-5-yl)phenyl]-2,3,7,12-tetrazatricyclo[7.4.0.0^2,6]trideca-1(9),3,5-trien-8-one] showed an EC50 of 500 to 5000 nM.

`CNc1n[nH]c2cc(-n3c(=O)c4c(n5ncc(CC6CC6)c35)CN(C(=O)c3ccc(Br)c(Cl)c3)CC4)ccc12` [Compound 27, 12-(4-bromo-3-chloro-benzoyl)-5-(cyclopropylmethyl)-7-[3-(methylamino)-1H-indazol-6-yl]-2,3,7,12-tetrazatricyclo[7.4.0.0^2,6]trideca-1(9),3,5-trien-8-one] had an EC50 of less than 50 nM.

Take `CNc1n[nH]c2cc(-n3c(=O)c4c(n5ncc(CC(C)C)c35)CN(C(=O)c3ccc(Br)c(C(F)(F)F)c3)[C@H](C)C4)ccc12` (stereo in doubt) [Compound 61a, rac-(11R)-12-[4-bromo-3-(trifluoromethyl)benzoyl]-5-isobutyl-11-methyl-7-[3-(methylamino)-1H-indazol-6-yl]-2,3,7,12-tetrazatricyclo[7.4.0.0^2,6]trideca-1(9),3,5-trien-8-one]: the EC50 was less than 50 nM. `C[C@H]1Cc2c(n3ncc(CC4CCC4)c3n(-c3ccc(-c4nncn4C)cc3)c2=O)CN1C(=O)c1ccc(Br)c(C(F)(F)F)c1` (stereo in doubt) [Compound 45b, rac-(11S)-12-[4-bromo-3-(trifluoromethyl)benzoyl]-5-(cyclobutylmethyl)-11-methyl-7-[4-(4-methyl-1,2,4-triazol-3-yl)phenyl]-2,3,7,12-tetrazatricyclo[7.4.0.0^2,6]trideca-1(9),3,5-trien-8-one] yielded an EC50 of 50 to 500 nM. Compound `Cc1nn[nH]c1-c1ccc(-n2c(=O)c3c(n4ncc(CC5CCC5)c24)CN(C(=O)c2ccc(Br)c(C(F)(F)F)c2)[C@H](C)C3)cc1` (stereo in doubt) [Compound 76a, rac-(11R)-12-[4-bromo-3-(trifluoromethyl)benzoyl]-5-(cyclobutylmethyl)-11-methyl-7-[4-(4-methyl-1H-triazol-5-yl)phenyl]-2,3,7,12-tetrazatricyclo[7.4.0.0^2,6]trideca-1(9),3,5-trien-8-one] displayed an EC50 of less than 50 nM. Turning to `Cc1nn[nH]c1-c1ccc(-n2c(=O)c3c(n4ncc(Cc5ccccc5)c24)CN(C(=O)c2ccc(Br)c(C(F)(F)F)c2)[C@H](C)C3)cc1` (stereo in doubt) [Compound 80a, rac-(11R)-5-benzyl-12-[4-bromo-3-(trifluoromethyl)benzoyl]-11-methyl-7-[4-(4-methyl-1H-triazol-5-yl)phenyl]-2,3,7,12-tetrazatricyclo[7.4.0.0^2,6]trideca-1(9),3,5-trien-8-one], the EC50 was less than 50 nM. In turn, `C[C@@H]1Cc2c(n3ncc(Cc4ccccc4)c3n(-c3ccc(-c4nc(=O)on4C)cc3)c2=O)CN1C(=O)c1ccc(Br)c(C(F)(F)F)c1` (stereo in doubt) [Compound 44a, 2-methyl-3-[4-[rac-(11R)-5-benzyl-12-[4-bromo-3-(trifluoromethyl)benzoyl]-11-methyl-8-oxo-2,3,7,12-tetrazatricyclo[7.4.0.0^2,6]trideca-1(9),3,5-trien-7-yl]phenyl]-1,2,4-oxadiazol-5-one] had an EC50 of less than 50 nM. As for `CNC(=O)c1ccc(-n2c(=O)c3c(n4ncc(CC5CC5)c24)CN(C(=O)c2ccc(Br)c(Cl)c2)[C@H](C)C3)cc1` (stereo in doubt) [Compound 22a, N-methyl-4-[rac-(11R)-12-[4-bromo-3-chlorobenzoyl]-5-(cyclopropylmethyl)-11-methyl-8-oxo-2,3,7,12-tetrazatricyclo[7.4.0.0^2,6]trideca-1(9),3,5-trien-7-yl]benzamide], the EC50 is less than 50 nM. As to `CNc1n[nH]c2cc(-n3c(=O)c4c(n5ncc(Cc6ccccc6)c35)CN(C(=O)c3ccc(Br)c(C(F)(F)F)c3)CC4)ccc12` [Compound 26, 5-benzyl-12-[4-bromo-3-(trifluoromethyl)benzoyl]-7-[3-(methylamino)-1H-indazol-6-yl]-2,3,7,12-tetrazatricyclo[7.4.0.0^2,6]trideca-1(9),3,5-trien-8-one], the EC50 is less than 50 nM. Consider `CNc1n[nH]c2cc(-n3c(=O)c4c(n5ncc(CC(C)C)c35)CN(C(=O)c3ccc(Cl)c(C(F)(F)F)c3)[C@@H](C)C4)ccc12` (stereo in doubt) [Compound 56b, rac-(11S)-12-[4-chloro-3-(trifluoromethyl)benzoyl]-5-isobutyl-11-methyl-7-[3-(methylamino)-1H-indazol-6-yl]-2,3,7,12-tetrazatricyclo[7.4.0.0^2,6]trideca-1(9),3,5-trien-8-one], for which the EC50 was 50 to 500 nM. The compound `Cc1nn[nH]c1-c1ccc(-n2c(=O)c3c(n4ncc(CC(C)C)c24)CN(C(=O)c2ccc(Br)c(Cl)c2)[C@H](C)C3)cc1` (stereo in doubt) [Compound 64a, rac-(11R)-12-(4-bromo-3-chloro-benzoyl)-5-isobutyl-11-methyl-7-[4-(4-methyl-1H-triazol-5-yl)phenyl]-2,3,7,12-tetrazatricyclo[7.4.0.0^2,6]trideca-1(9),3,5-trien-8-one] came in with an EC50 of less than 50 nM. On the same count and under the same terms, in the case of `C[C@H]1Cc2c(n3ncc(Cc4ccccc4)c3n(-c3ccc(-c4nncn4C)cc3)c2=O)CN1C(=O)c1ccc(Br)c(C(F)(F)F)c1` (stereo in doubt) [Compound 39b, rac-(11S)-5-benzyl-12-[4-bromo-3-(trifluoromethyl)benzoyl]-11-methyl-7-[4-(4-methyl-1,2,4-triazol-3-yl)phenyl]-2,3,7,12-tetrazatricyclo[7.4.0.0^2,6]trideca-1(9),3,5-trien-8-one] it was 50 to 500 nM.

The values are drawn from US11820773B2, “Tricyclic compounds” (ALIGOS THERAPEUTICS, INC., priority 2020, dated 2023).
